{
  "source": "patent EP0158075A1",
  "about": "“Immuno stimulating composition” (BAYER AG, priority 1984, dated 1985)",
  "key": {"Salmonella typhimurium [1]": {"tested_on": "Salmonella typhimurium", "assay": "Survival of mice after intraperitoneal infection with Salmonella typhimurium (Beispiel B)", "assay_type": "in vivo, Mäuse", "settings": "10 mg/kg per os once daily on 4 consecutive days, starting 1 day after i.p. infection with 7 x 10^5 colony-forming units", "from_the_text": "Substanzen, die die körpereigene Abwehr (Immunsystem) während einer Infektion stimulieren, sind sowohl für die Human- wie für die Veterinärmedizin von großem Interesse, da viele Infektionen trotz guter chemotherapeutischer Möglichkeiten ohne Unterstützung durch körpereigene Abwehrmechanismen persistieren. Dies kann zum erneuten Auftreten von Symptomen (Rezidiv) nach dem überstehen der Ersterkrankung und damit zu chronisch rezidivierenden Krankheiten führen. Unter den durch Bakterien bedingten Erkrankungen sind es besonders Infektionen mit sogenannten fakultativ intrazellulären Bakterien, die Probleme darstellen. Darunter versteht man Bakterien, die sich nach Aufnahme in die Makrophagen (Phagozytose) weiter vermehren. Es bedarf erst einer weiteren Stimulierung der Makrophagen über das Immunsystem, um diese intrazellulären Bakterien abzutöten. Ein Experimentalmodell für eine solche Erkrankung stellt die Infektion der Maus mit Salmonella typhimurium dar. Nach Inokulation der Mäuse mit diesem humanpathogenen Bakterium kommt es in Abhängigkeit von der Infektionsdosis zu einem subakut bis chronischen Krankheitsverlauf, bei dem die Tiere erst nach 4 bis 7 Tagen abzusterben beginnen. Während dieses Zeitraumes besteht die Möglichkeit, das Immunsystem durch Substanzen zu beeinflussen. Bei den meisten anderen tierexperimentellen Infektionen, kommt es zu einem sehr schnellen Absterben der Tiere innerhalb von 1 bis 2 Tagen. Damit besteht keine Möglichkeit mehr, die Abwehr während der Infektion zu stimulieren. 1-[3-Methyl-4-(4'-trifluormethylthio-phenoxy)-phenyl]-3-methyl-1,3,5-triazin-trion wurde Mäusen an 4 aufeinanderfolgenden Tagen einmal täglich per os in unterschiedlichen Dosen verabfolgt, beginnend 1 Tag nach intraperitonealer Infektion mit 7 x 10^5 Kolonien-bildenden Einheiten von Salmonella typhimurium. Diese Infektionsdosis führt bei unbehandelten Tieren innerhalb von 4 bis 6 Tagen zu einem Absterben von 70 bis 90 % der Tiere. […]"}, "Salmonella typhimurium [2]": {"tested_on": "Salmonella typhimurium", "assay": "In vitro direct effect on growth of Salmonella typhimurium", "assay_type": "cell-based"}},
  "data": [
    {"smiles": "Cc1cc(-n2c(=O)[nH]c(=O)n(C)c2=O)ccc1Oc1ccc(SC(F)(F)F)cc1", "note": "[1-[3-Methyl-4-(4'-trifluormethylthio-phenoxy)-phenyl]-3-methyl-1,3,5-triazin-2,4,6-(1H, 3H, 5H)-trion]", "values": [
      {"measurement": "Überlebende Mäuse (%) an folgenden Tagen nach Infektion: 6. Tag", "setting": "Salmonella typhimurium [1]; day 6 after infection", "result": 90, "unit": "%"},
      {"measurement": "Überlebende Mäuse (%) an folgenden Tagen nach Infektion: 12. Tag", "setting": "Salmonella typhimurium [1]; day 12 after infection", "result": 60, "unit": "%"},
      {"measurement": "Überlebende Mäuse (%) an folgenden Tagen nach Infektion: 18. Tag", "setting": "Salmonella typhimurium [1]; day 18 after infection", "result": 60, "unit": "%"},
      {"measurement": "direkter Effekt auf die Vermehrung von Salmonella typhimurium", "setting": "Salmonella typhimurium [2]", "result": "keinen direkten Effekt"}
    ]}
  ]
}
